Measurements reported in patent publication US5658880A, “Sialic acid/fucose based medicaments” (Glycomed Incorporated, priority 1994, dated 1997).

Columns and labels:
E-selectin = test: ELISA: inhibition of E-selectin-IgG chimera binding to 2,3 sLe^x glycolipid; set-up: species or system human
From the text: (§1) An ELISA assay is preferably used that employs recombinant fusion proteins composed of extracellular portions of the human selectins joined to human immunoglobulin heavy chain CH3, CH2, and hinge regions. See, for example, Walz et al., Science (1990) 250:1132; Aruffo et al., Cell (1991) 67:35; Aruffo et al., Proc. Natl. Acad. Sci. USA. (1992) 89:2292. The assay is well known in the art, and generally consists of the following three steps:
I. 2,3 sLe^x glycolipid (25 picomole/well) was transferred into microtiter wells as solutions and then evaporated off. Excess, which remained unattached, was washed off with water. The wells were then blocked with 5% BSA at room temperature for an hour and then washed with PBS containing 1 mM calcium.
II. Preparation of "multivalent" receptor of the Selectin-lgG chimera was carried out by combining the respective chimera (1 μg/mL) with biotin labelled goat F(ab')2 anti-human IgG (Fc specific) and streptavidin-alkaline phosphatase diluted 1:1000 in 1% BSA-PBS (1 mM calcium) and incubating at 37° C. for 15 min. This allowed the soluble multivalent receptor complex to form. III. Potential inhibitors such as the compounds of formula I or II were allowed to react with the soluble receptor at 37° C. for 45 min. This test assumes that optimal binding, between the soluble phase receptor complex and the inhibitor (non natural ligand), would have occurred within this time frame. This solution was then placed in the microtiter wells that were prepared in step I. The plate was incubated at 37° C. for 45 minutes to allow the soluble receptor to bind to its natural ligand. In the presence of a strong inhibitor only a few receptors should be free to bind to the microtiter plate coated with the natural ligand.
The positive control is the signal produced by the soluble receptor when it is allowed to react with 2,3 sLe^x glycolipid in the microtiter wells in the absence of any inhibitor. This positive control was considered 100% binding. The signal produced by the receptor that had been previously treated with an inhibitor (recorded as O.D.), was divided by the signal produced by the positive control and multiplied by 100 to calculate the % receptor bound to the well in the presence of the inhibitor. The reciprocal of this number is the % inhibition.
as §1, with “was employed” for “is preferably used”, “uses” for “employs”, “USA” for “USA.”
II. Preparation of "multivalent" receptor of the Selectin-IgG chimera was carried out by combining the respective chimera 1 μg/ml) with biotin labelled goat F(ab')2 anti-human IgG (Fc specific) and streptavidin-alkaline phosphatase diluted 1:1000 in 1% BSA-PBS (1 mM calcium) and incubating at 37° C. for 15 min. This allowed the soluble multivalent receptor complex to form.
III. Potential inhibitors such as compounds of formula I or II were allowed to react with the soluble receptor at 37° C. for 45 min. This test assumes that optimal binding, between the soluble phase receptor complex and the inhibitor (non natural ligand), would have occurred within this time frame. This solution was then placed in the microtiter wells that were prepared in step I. The plate was incubated at 37° C. for 45 minutes to allow the soluble receptor to bind to its natural ligand. In the presence of a strong inhibitor only a few receptors should be free to bind to the microtiter plate coated with the natural ligand.
The positive control is the signal produced by the soluble receptor when it is allowed to react with 2,3 sLe^x glycolipid in the microtiter wells in the absence of any inhibitor. This was considered 100% binding. […]

P-selectin = test: Flow cytometric assay: inhibition of P-selectin-IgG binding to HL-60 cells; assay type: cell-based, human; set-up: unit of the concentration uncertain
Protocol: The interaction of P-selectin and its cellular ligand was studied using a flow cytometric assay (Erbe, D. V. et al., J. Cell Biol. (1993) 120:1227). HL60 cells (maintained in high glucose DME plus 10% Hyclone FBS) were used in this assay. Before staining with P-selectin-IgG the cells were preincubated in Dulbecco's PBS/1% BSA/0.1% sodium azide/1% normal rabbit serum (staining medium) for 30-60 mins on ice. After this initial incubation, 1 μg of P-selectin-IgG was added to 100 μl aliquots of 10^6 cells and incubated for 30-60 mins on ice. The cells were when washed with staining medium and resuspended in 100 μl of staining medium to which was added 2 μl of a phycoerythrin-conjugated F(ab')^2 goat anti-human IgG (Fc specific). The cells were incubated for 15-30 mins on ice, washed twice with staining medium, and resuspended in 0.5 ml of staining medium before flow cytometric analysis on a FACScan (Becton Dickinson & Co., Mountain View, Calif.). To determine that the staining was an interaction of P-selectin with its ligand, the staining was also done in the presence of 10 mM EGTA. To determine the protease sensitivity and the requirement for sialic acid of this interaction, HL-60 cells in D-PBS and 1% BSA were incubated with either trypsin or Arthrobacter or Clostridium sialidases at 37° C. before resuspending in staining medium. To examine the ability of various carbohydrates to inhibit staining, 50 μg/ml fucoidin (Sigma Immunochemicals, St. Louis, Mo.), 50 μg/ml dextran sulfate (Pharmacia Fine Chemicals, Piscataway, N.J.), 10 mg/ml mannose-1-phosphate (Sigma Immunochemicals), or 10 mg/ml mannose-6-phosphate (Sigma Immunochemicals) was added to cells immediately before the addition of the P-selectin chimera. Each carbohydrate was then present until the cells were washed before the addition of the second stage antibody. A potential complication of this FACS assay arose from the use of selectin-IgG chimeras to stain cells which bear human IgG Fc receptors (FcγR; Fanger, M. W., et al., Immunol. Today (1989) 10:92). Adding rabbit IgG (in the form of normal rabbit serum) to the assay medium blocked this binding in most cases.

IC50 (E-selectin; inhibition of binding to 2,3 sLex glycolipid): > 4 mM
SMILES: CC(=O)NC1C(O)CC(OCCCCCCOC2OC(C)C(O)C(O)C2O)(C(=O)O)OC1C(O)C(O)CO [Compound 7, 1-O-α-Neu5Ac-(6-O-α-L-Fucopyranosyl)-Hexane]
inhibition of E-selectin binding to 2,3 sLe^x glycolipid (E-selectin; FIG. 4, result in words): inhibit E-selectin binding to 2,3 sLe^x glycolipid
Inhibition (%) of P-selectin-IgG binding to HL-60 cells (P-selectin; 10 (unit uncertain)): 60%
Inhibition (%) of P-selectin-IgG binding to HL-60 cells (P-selectin; 50 (unit uncertain)): 80%
Inhibition (%) of P-selectin-IgG binding to HL-60 cells (P-selectin; 100 (unit uncertain)): 80%
